Measured values as given in the NIST ThermoML archive (doi:10.1021/je100131c).

Key:
[1] = Adiabatic calorimetry
[2] = molar heat capacity at constant pressure; settings: 101.33 kPa

CCCn1cc[n+](C)c1.N[C@@H](CCC(=O)O)C(=O)[O-]
Settings | Glass transition temperature [°C]
[1] | -33

[2]
Settings | molar heat capacity at constant pressure [J/K/mol]
86.07 K, Glass | 150.25
88.05 K, Glass | 152.63
90.01 K, Glass | 154.9
91.97 K, Glass | 157.5
93.95 K, Glass | 159.49
95.92 K, Glass | 162.14
97.89 K, Glass | 164.13
99.85 K, Glass | 166.66
102.59 K, Glass | 169.25
105.33 K, Glass | 173.04
107.28 K, Glass | 175.8
109.24 K, Glass | 177.98
111.23 K, Glass | 179.21
113.2 K, Glass | 181.07
115.14 K, Glass | 183.75
117.1 K, Glass | 185.58
119.09 K, Glass | 186.96
121.06 K, Glass | 188.82
123 K, Glass | 191.13
124.97 K, Glass | 193.29
126.97 K, Glass | 194.36
128.94 K, Glass | 196.26
130.9 K, Glass | 199.43
132.84 K, Glass | 200.78
134.79 K, Glass | 203.07
136.78 K, Glass | 204.43
138.75 K, Glass | 206.24
140.7 K, Glass | 207.69
142.65 K, Glass | 208.89
144.61 K, Glass | 211.05
146.6 K, Glass | 212.89
148.57 K, Glass | 215.15
150.53 K, Glass | 216.91
153.04 K, Glass | 219.16
155.56 K, Glass | 221.42
157.53 K, Glass | 223.77
159.49 K, Glass | 225.64
161.44 K, Glass | 227
163.38 K, Glass | 228.24
165.3 K, Glass | 230.3
167.27 K, Glass | 232.18
169.28 K, Glass | 234.1
171.28 K, Glass | 236.74
173.27 K, Glass | 237.97
175.25 K, Glass | 240.31
177.21 K, Glass | 242.87
179.17 K, Glass | 243.7
181.11 K, Glass | 245.51
183.05 K, Glass | 248.04
185.03 K, Glass | 250.2
187.05 K, Glass | 252.7
189.06 K, Glass | 255.28
191.06 K, Glass | 257.14
193.05 K, Glass | 259.68
195.03 K, Glass | 262.63
197.01 K, Glass | 264.18
198.97 K, Glass | 266.54
200.93 K, Glass | 268.59
203.31 K, Glass | 271.02
205.67 K, Glass | 273.69
207.65 K, Glass | 277.76
209.69 K, Glass | 281.69
211.73 K, Glass | 283.31
213.76 K, Glass | 284.6
215.8 K, Glass | 286.92
217.82 K, Glass | 290.11
219.85 K, Glass | 294.21
221.88 K, Glass | 296.62
223.91 K, Glass | 297.46
225.94 K, Glass | 299.66
227.97 K, Glass | 300.73
229.99 K, Glass | 302.48
231.96 K, Glass | 310.06
234 K, Glass | 323.45
236.07 K, Glass | 333.04
238.02 K, Glass | 358.09
239.86 K, Glass | 407.73
242.01 K, Glass | 462.82
244.24 K, Liquid | 471
246.18 K, Liquid | 472.35
248.12 K, Liquid | 473.61
250.04 K, Liquid | 475.54
251.97 K, Liquid | 476.41
253.9 K, Liquid | 477.37
255.89 K, Liquid | 478.45
257.87 K, Liquid | 480.19
259.86 K, Liquid | 481.42
261.91 K, Liquid | 483.73
263.96 K, Liquid | 485.28
266 K, Liquid | 486.86
268.04 K, Liquid | 487.89
270.07 K, Liquid | 489.67
272.09 K, Liquid | 491.51
274.12 K, Liquid | 493.23
276.13 K, Liquid | 495.7
278.15 K, Liquid | 497.67
280.16 K, Liquid | 498.94
282.16 K, Liquid | 501.05
284.17 K, Liquid | 503.38
286.16 K, Liquid | 505.39
288.12 K, Liquid | 507.35
290.06 K, Liquid | 509.26
292.08 K, Liquid | 511.23
294.05 K, Liquid | 513.1
296.01 K, Liquid | 514.91
297.97 K, Liquid | 516.83
299.93 K, Liquid | 518.67
301.88 K, Liquid | 520.07
303.82 K, Liquid | 521.96
305.77 K, Liquid | 523.25
307.7 K, Liquid | 524.77
309.64 K, Liquid | 526.25
311.57 K, Liquid | 527.31
313.5 K, Liquid | 528.82
315.43 K, Liquid | 530.52
317.41 K, Liquid | 531.97
319.47 K, Liquid | 533.47
321.52 K, Liquid | 534.99
323.57 K, Liquid | 536.53
325.61 K, Liquid | 538.93
327.65 K, Liquid | 539.74
329.68 K, Liquid | 541.83
331.71 K, Liquid | 543.17
333.73 K, Liquid | 544.98
335.75 K, Liquid | 546.87
337.76 K, Liquid | 549.25
339.77 K, Liquid | 550.76
341.77 K, Liquid | 553.01
343.77 K, Liquid | 554.52
345.76 K, Liquid | 557
347.75 K, Liquid | 559.26
349.74 K, Liquid | 561.22
351.73 K, Liquid | 563.15
353.72 K, Liquid | 565.12
355.7 K, Liquid | 566.91
357.68 K, Liquid | 568.06
